Assay results taken from patent US6649364B1, “Anti-apoptotic compositions and methods using same” (The Regents of the University of California, priority 1995, dated 2003).
Where a SMILES comes first, the peptide text is derived from it. [ ]: non-standard residue; d: D form. The star is where a group is joined. Sta = CC(C)C[C@H](N)[C@@H](O)CC(=O)O; Isovaleryl = CC(C)CC(=O)*

target: T1, human recombinant ICE (Homo sapiens, UniProt P29466); test: ICE cleavage of actin in PC12 cell extracts, with protease inhibitors (SDS-PAGE, immunoblot); assay type: biochemical; details: not given
T1 construct: highly purified human recombinant ICE (p20/p10) (Merck, Wayne, N.J.); purchased Merck, Wayne, N.J
T1 sequence (P29466 120-297 limits assumed): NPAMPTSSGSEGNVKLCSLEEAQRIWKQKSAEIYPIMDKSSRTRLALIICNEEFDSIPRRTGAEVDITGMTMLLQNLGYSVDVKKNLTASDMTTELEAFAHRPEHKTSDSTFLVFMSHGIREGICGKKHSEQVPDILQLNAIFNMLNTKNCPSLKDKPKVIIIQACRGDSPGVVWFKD
T1 sequence (P29466 317-404 limits assumed): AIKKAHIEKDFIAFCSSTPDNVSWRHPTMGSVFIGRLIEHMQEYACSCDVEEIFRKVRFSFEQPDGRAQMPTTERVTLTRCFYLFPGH
Description: Cells were washed with ice-cold PBS twice and were extracted with Triton X-100® detergent (1%) in Hepes buffer (10 mM, pH=7.5). Supernatants were treated with ICE as follows: 50 μg of cellular protein extracted from semi-confluent cells grown in serum-containing media was incubated with 50 ng of highly purified human recombinant ICE (p20/p10) (Merck, Wayne, N.J.) at 37° C. for 2 hours in the presence of 10 mM dithiothreitol (DTT).
In order to determine whether any of the cellular proteins of relatively high abundance serve as ICE substrates, extracts prepared from PC12 pheochromocytoma cells (29), CSM14.1 cells (conditionally immortalized mesencephalic neuronal cells) (30, 31), and Rat-1 cells (25) were treated with highly purified human recombinant ICE under various conditions. The cleavage products were then analyzed by SDS-polyacrylamide gel electrophoresis.
Control was incubated in the absence of ICE.

Row | Molecule | inhibition of the generation of actin fragments by ICE
1 | O=C(O)CI [iodoacetate] | completely inhibited

same assay, conditions: cell extracts treated with ICE, 37° C., 2 hours

Row | Molecule | inhibition of the generation of actin fragments by ICE
2 | CC(=O)N[C@@H](CC(C)C)C(=O)N[C@@H](CC(C)C)C(=O)N[C@H](C=O)CCCNC(=N)N [leupeptin] | not
3 | O=S(=O)(F)Cc1ccccc1 [phenylmethylsulfonyl fluoride] | not
4 | human α2-macroglobulin: granzyme B inhibitor, shown not to inhibit ICE | not

More lines, now with the values ahead:

Row | inhibition of the generation of actin fragments by ICE | Molecule
5 | not | CC(C)C[C@H](NC(=O)[C@H]1O[C@@H]1C(=O)O)C(=O)NCCCCN=C(N)N [E-64]
6 | not | CC(C)CC(=O)N[C@H](C(=O)N[C@H](C(=O)N[C@@H](CC(C)C)[C@@H](O)CC(=O)N[C@@H](C)C(=O)N[C@@H](CC(C)C)[C@@H](O)CC(=O)O)C(C)C)C(C)C [pepstain] (Isovaleryl-VV[Sta]A[Sta]-OH)
7 | completely inhibited | Ac-Tyr-Val-Ala-Asp-CHO
